# “Also recorded” adds a separate entry of the source.
# Experiments:
# [1] = Crystal form transformation under humidity / drying (XRPD); assay type: physicochemical; details: humidity or drying as stated in the value
# Description: Crystal form I can be obtained by the preparation method in Example 3. […] (FIG. 29). Combined with the DVS test results (FIG. 30), it can be seen that the mutual transformation between crystal forms I and IV is reversible.
# Crystal form IV is a hygroscopic product of crystal form I under high humidity environment, and can be obtained by slurrying crystal form I or crystal form V in a mixed solvent of water/acetone with a water content of 50% to 95%.
# Crystal form VI was obtained by slurrying crystal form I or crystal form V at 60° C. in a mixed solvent of water/acetone with a water content of 10% (volume ratio) at 60° C.
# Crystal form VIII is a hydrate, but the hydrate is unstable.
# [2] = phase II clinical trial; cited from earlier work
# [3] = Pharmacokinetic experiments in Beagles; assay type: in vivo; details: Beagle, male, PO, 10 mg/kg, plasma
# Experimental: The present disclosure preferred crystal forms I, III, and V of the compound in the above examples for pharmacokinetic experiments in Beagles, and the relevant experiments are as follows:
# Animal: 9 Beagles, male, divided into three groups with 3 in each group, weight ranging from 10 to 13 kg (source & certificate number: Beijing Marshall Biotechnology Co., Ltd., No. 1103182011000161)
# Administration mode and dosage: PO: 10 mg/kg
# Preparation: 0.5% CMC-Na was used as the solvent, and 400 mg of each of the three different crystal forms of compound A were weighed and added to the corresponding 79 mL of solvent, respectively. The mixture was subjected to ultrasonication for 20 minutes, added with a stirrer, and mixed thoroughly for 3 hours (the storage period from compound preparation to animal administration at room temperature was less than 6 hours). After the drug solution became a homogeneous and fine suspension, which was observed by the naked eye, the solvent was gradually added until the specified volume reached the target concentration. The preparation was stirred for 10 minutes at room temperature before administration, and stirred continuously during administration.
# Time points for sampling: the time points for blood sampling in the PO group were 0.167, 0.5, 1, 2, 4, 6, 8, and 24 hours.
# Animals in the PO group were fasted overnight except for free access to water before administration, and resumed food supply 4 hours after administration.
# After Beagles in the […] were administered, blood was collected from Beagles by jugular vein puncture according to the time points for sampling. About 1.0 mL of blood was collected at each time point and transferred to an anticoagulant EP tube (containing 10 μL of EDTA-K2, 375 mg/mL). The tube was gently inverted three times, stored in an ice box (no more than 30 minutes), and centrifuged at 3200 g for 10 minutes at 4° C. The plasma was transferred to an ultra-low temperature refrigerator and stored until detection.
# Sample pretreatment process: 40 μL of sample was taken, and 160 μL of acetonitrile solution containing 0.1% FA and 200 ng/mL of mixed standard solution was added to precipitate the protein. The mixture was vortexed and mixed well, and the sample was centrifuged in a 4° C. centrifuge at 13000 pm for 10 minutes. 100 μL of the supernatant was transferred to another 96 deep well plate, then 100 μL of methanol:water (1:3, v:v) solution containing 0.1% FA was added thereto, and the mixture was shaken and mixed for 10 minutes.
# • Ion source: ion electrospray (ESI) • Ionization mode: positive ion mode (Positive) • Detection mode (mode): multiple reaction monitoring (MRM) • Ion spray voltage: 5500 V • Ion spray temperature (turbo ion spray temp): 550° C. • Curtain gas type: nitrogen setting: 35 • Collision cell gas type (CAD gas type): nitrogen setting: medium • Nebulizing gas type (gas 1): nitrogen setting: 55.00 • Auxiliary gas type (gas 2): nitrogen setting: 55.00
# • Chromatographic column: poroshell 120 EC-C18 (4.6×50 mm, 2.7 μm) • Mobile phase A: 0.1% formic acid aqueous solution • Mobile phase B: a solution of 0.1% formic acid in methanol • Auto sampler wash solution (rinse port wash solution): 50% methanol • Column temperature: 40° C. • Flow rate: 0.55 mL/min • Auto sampler temperature (sample tray temp): 10° C. • Injection volume: 3 μL • Lift of presser foot (needle stroke): 49 mm • Auto sampler rinse setting (rinse pump setting): rinse port only • Auto sampler rinse mode (rinse mode): before aspiration • Auto sampler rinse volume for needle (rinse volume): 500 μL • Dip time when rinsing the injection needle (rinse dip time): 2 seconds
# The data would be analyzed using WinNonlin (version 5.2.1 Pharsight, Mountain View, CA) through a non-compartmental model to obtain PK parameters (selecting Cmax, Tmax, AUClast, T1/2, and other parameters according to different routes of administration).
# [4] = Physical and chemical stability of crystal forms at 60° C. (closed) and 40° C./75% RH (open); assay type: physicochemical
# Experimental: The physical and chemical stability of crystal forms I, III, and V at 60° C. (closed) and 40° C./75% RH (open) for 7 days were investigated respectively.
# (closed) and 40° C./75% RH (open) for 3 months were investigated.
# [5] = Dynamic vapor sorption (DVS) test; assay type: physicochemical; details: for DVS (wt %, 80% RH) / DVS (wt %, 90% RH): 25° C.
# [6] = Solubility tests in biological media of SGF, FaSSIF and FeSSIF; assay type: physicochemical
# Experimental: The instrument used for liquid chromatography analysis was Agilent HPLC 1260 series, and the analytical method is shown in the table below.
# The results of solubility tests of crystal forms I, III, and V in biological media of SGF, FaSSIF, and FeSSF are as shown in Table E and FIG. 43. There was little difference in the solubility of the above three crystal forms in different biological media, and the solubility in SGF was higher than 5 mg/mL.
AUClast [3],Cmax [3],T1/2 [3],Tmax [3],"Purity - 7 days (peak area %) ([4]; 40° C./75% RH (open), 7 days)","Purity - 7 days (peak area %) ([4]; 60° C. (closed), 7 days)",Initial purity (peak area %) [4],"DVS (wt %, 80% RH) ([5]; 80% RH)","DVS (wt %, 90% RH) [5]","pH ([6]; FaSSIF, 0.5 h)","pH ([6]; FaSSIF, 2 h)","pH ([6]; FaSSIF, 24 h)","pH ([6]; FeSSIF, 0.5 h)","pH ([6]; FeSSIF, 2 h)","pH ([6]; FeSSIF, 24 h)","pH ([6]; SGF, 0.5 h)","pH ([6]; SGF, 2 h)",Structure (SMILES),crystal form transformation [1],"XRPD of remaining solid ([6]; FaSSIF, 0.5 h)","XRPD of remaining solid ([6]; FeSSIF, 0.5 h)",further results
–,–,–,–,–,–,–,–,–,–,–,–,–,–,–,–,–,"COC(=O)N1CCO[C@@H](Cc2c(-c3c(F)cc(S(N)(=O)=O)cc3F)nc3cc(Cl)ccn23)C1 [Crystal form IV, methyl (S)-2-((7-chloro-2-(2,6-difluoro-4-sulfamoylphenyl)imidazo[1,2-a]pyridin-3-yl)methyl)morpholine-4-carboxylate]",transformed into crystal form I as an anhydrous crystal form after vacuum drying and dehydration,–,–,–
–,–,–,–,–,–,–,–,–,–,–,–,–,–,–,–,–,"COC(=O)N1CCO[C@@H](Cc2c(-c3c(F)cc(S(N)(=O)=O)cc3F)nc3cc(Cl)ccn23)C1 [Crystal form VIII, methyl (S)-2-((7-chloro-2-(2,6-difluoro-4-sulfamoylphenyl)imidazo[1,2-a]pyridin-3-yl)methyl)morpholine-4-carboxylate]",transformed into crystal form I,–,–,–
–,–,–,–,–,–,–,–,–,–,–,–,–,–,–,–,–,COc1cc(C(C)C)c(Oc2cnc(N)nc2N)cc1S(N)(=O)=O [AF-219],–,–,–,dysgeusia [2]: serious dysgeusia problem; efficacy on refractory cough [2]: good efficacy
2637 ± 1750 ng·h/mL,170 ± 99.4 ng/mL,44.4 ± 28.9 h,4.67 ± 0.67 h,99.28 peak area %,99.30 peak area %,99.29 peak area %,0.7 wt %,0.9 wt %,6.4,6.4,6.4,5.0,5.0,5.1,1.2,1.1,"COC(=O)N1CCO[C@@H](Cc2c(-c3c(F)cc(S(N)(=O)=O)cc3F)nc3cc(Cl)ccn23)C1 [Crystal form V, methyl (S)-2-((7-chloro-2-(2,6-difluoro-4-sulfamoylphenyl)imidazo[1,2-a]pyridin-3-yl)methyl)morpholine-4-carboxylate]",–,Unchanged,Unchanged,"XRPD of remaining solid ([6]; FaSSIF, 2 h): Unchanged; XRPD of remaining solid ([6]; FaSSIF, 24 h): Unchanged; XRPD of remaining solid ([6]; FeSSIF, 2 h): Unchanged; XRPD of remaining solid ([6]; FeSSIF, 24 h): Unchanged; pH ([6]; SGF, 24 h): 1.2; solubility at 2 h ([6]; pH 1.1, simulated gastric fluid, thermodynamic from solid, SGF, 2 h, visual observation): > 5000 µg/mL"
–,–,–,–,–,–,–,–,–,–,–,–,–,–,–,–,–,"COC(=O)N1CCO[C@@H](Cc2c(-c3c(F)cc(S(N)(=O)=O)cc3F)nc3cc(Cl)ccn23)C1 [Crystal form VI, methyl (S)-2-((7-chloro-2-(2,6-difluoro-4-sulfamoylphenyl)imidazo[1,2-a]pyridin-3-yl)methyl)morpholine-4-carboxylate]",transformed into crystal form I after being placed under ambient humidity (35% RH) for a few minutes,–,–,–
7926 ± 6235 ng·h/mL,991 ± 800 ng/mL,11.9 ± 3.65 h,2.00 ± 0.00 h,99.38 peak area %,99.37 peak area %,99.38 peak area %,6.8 wt %,6.9 wt %,6.4,6.4,6.4,5.0,5.1,5.1,1.2,1.3,"COC(=O)N1CCO[C@@H](Cc2c(-c3c(F)cc(S(N)(=O)=O)cc3F)nc3cc(Cl)ccn23)C1 [Crystal form I, methyl (S)-2-((7-chloro-2-(2,6-difluoro-4-sulfamoylphenyl)imidazo[1,2-a]pyridin-3-yl)methyl)morpholine-4-carboxylate]",absorbed moisture under high humidity environment and was transformed into crystal form IV as a hydrate; also recorded: easy to transform into crystal form IV when RH >40%,transformed into crystal form IV as a hydrate,transformed into crystal form IV as a hydrate,"XRPD ([4]; 40° C./75% RH (open), 7 days): transformed into crystal form IV as a hydrate; XRPD before and after the DVS test [5]: remained unchanged; hygroscopicity (DVS) ([5]; 80% RH): 6.8%; pH ([6]; SGF, 24 h): 1.2"

# Source: US20240293420A1, “PHARMACEUTICAL COMPOSITION, PREPARATION, AND PREPARATION METHOD THEREFOR AND USE THEREOF” (WUHAN LL SCIENCE AND TECHNOLOGY DEVELOPMENT CO., LTD., priority 2021, published 2024)
